Laboratory results reported in PMC7441487 (mBio, 2020).
“Also recorded” adds a separate entry of the source. Read-outs that look alike come from different tables or passages of the source.

What was measured:
[1] = test system: SARS-CoV-2^WK-521; test: Immunocytochemistry, low-stringency assay (VeroE6 cells and SARS-CoV-2^WK-521); assay type: cell-based; settings: VeroE6 cells; for Block of SARS-CoV-2^WK-521 infection (immunocytochemistry): overall statement over the concentrations tested
[2] = Cytotoxicity, WST-8 assay (Cell Counting Kit-8); assay type: cell-based; settings: African green monkey, VeroE6 cells
[3] = test system: SARS-CoV-2^WK-521; test: Antiviral assay: viral RNA in culture supernatants by RNA-qPCR (RT-qPCR), VeroE6 cells; assay type: cell-based; settings: for Selectivity index: ratio of CC50 to EC50, VeroE6 cells
[4] = test system: SARS-CoV-2^WK-521; test: Immunocytochemistry, high-stringency assay (VeroE6^TMPRSS2 cells and SARS-CoV-2^WK-521); assay type: cell-based; settings: VeroE6^TMPRSS2 cells; for Block of infectivity and cytopathic effect of SARS-CoV-2^WK-521 (immunocytochemistry): overall statement, Fig. 3B; for Observation by immunocytochemistry: 100 μM; for Antiviral effect seen by immunocytochemistry: 1 and 10 μM
[5] = test system: VeroE6 cells; test: Cytotoxicity, WST-8 assay (Cell Counting Kit-8); assay type: cell-based; settings: concentrations up to 100 μM
[6] = test system: SARS-CoV-2^WK-521; settings: VeroE6 cells; 100 μM; 3 days
[7] = test system: SARS-CoV-2; settings: Calu-3 cells exposed to SARS-CoV-2; cited from earlier work
[8] = target: HIV-1 protease (Human immunodeficiency virus type 1 group M subtype B, UniProt P04585); test: Thermal stability of HIV-1 protease by differential scanning fluorimetry (control); assay type: binding; settings: HIV-1 protease 5 μM + 5 μM compound (1:1); protease alone 54.78°C
[9] = target: SARS-CoV-2 M^pro (Severe acute respiratory syndrome coronavirus 2, UniProt P0DTD1); test: M^pro molecular weight analysis with HPLC/MS (covalent binding); settings: 100 μM compound, 37°C, 30 min
[10] = Severe acute respiratory syndrome coronavirus 2, Vero C1008, read-out: EC50 ±SD

## CC(=O)Oc1ccccc1C(=O)Nc1ncc([N+](=O)[O-])s1 [Nitazoxanide, nitazoxanide]
[1]; 100 μM
  Observation by immunocytochemistry: only a few nuclei remained
[1]; 1 and 10 μM
  Observation by immunocytochemistry: did not exert activity against the virus
[1]
  Block of SARS-CoV-2^WK-521 infection (immunocytochemistry): did not block the infectivity
[2]
  CC50 at 3 days: 88 ± 3 µM
[3]; [10]
  EC50: 31 ± 6 µM
[3]
  Selectivity index: 2.8

## NC(=O)c1nc(F)c[nH]c1=O [Favipiravir, favipiravir]
[1]
  Block of SARS-CoV-2^WK-521 infection (immunocytochemistry): failed to block SARS-CoV-2 infection
[4]
  Block of infectivity and cytopathic effect of SARS-CoV-2^WK-521 (immunocytochemistry): failed to block the infection
[2]
  CC50 at 3 days: > 100 µM
[5]
  Cytotoxicity (in words): nontoxic at all concentrations tested
[3]; [10]
  EC50: > 100 µM

## CCN(CC)CCCC(C)Nc1ccnc2cc(Cl)ccc12 (stereo not drawn) [Chloroquine, chloroquine]
[1]; 10 μM
  Observation by immunocytochemistry: slightly block infectivity
[1]; 100 μM
  Observation by immunocytochemistry: almost all the cells were shed from the wells
[1]; 100 μM, listed as chloroquine
  Observation by immunocytochemistry: almost all VeroE6 cells were lost
[1]
  Block of SARS-CoV-2^WK-521 infection (immunocytochemistry): failed to block the infectivity

## O=C(Oc1cncc(Cl)c1)c1cccc2[nH]ccc12 [GRL-0920]
[6]
  Protection of virus-exposed cells (light microscopy): appeared to be protected
[1]; 10 μM
  Observation by immunocytochemistry: further suppression of viral replication
[1]; 100 μM
  Observation by immunocytochemistry: completely blocked; also recorded: complete
[1]
  Block of SARS-CoV-2^WK-521 infection (immunocytochemistry): completely blocked the infectivity
[4]
  Observation by immunocytochemistry: essentially no infected cells seen
  Block of infectivity and cytopathic effect of SARS-CoV-2^WK-521 (immunocytochemistry): potently blocked; also recorded: completely blocked
[2]
  CC50 at 3 days: > 100 µM
[3]; [10]
  EC50: 8.6 ± 2.8 µM

## CCN(CCO)CCCC(C)Nc1ccnc2cc(Cl)ccc12 (stereo not drawn) [Hydroxychloroquine, hydroxychloroquine]
[1]; 10 μM
  Observation by immunocytochemistry: slightly block infectivity
[1]; 100 μM
  Observation by immunocytochemistry: almost all the cells were shed from the wells; also recorded: virtually no cells were left
[1]
  Block of SARS-CoV-2^WK-521 infection (immunocytochemistry): did not exert significant antiviral activity; also recorded: failed to block the infectivity
[2]
  CC50 at 3 days: > 100 µM
[5]
  Cytotoxicity (in words): nontoxic at up to 100 μM
[3]; [10]
  EC50: 5.1 ± 3.4 µM
[3]
  Selectivity index: >20

## N=C(N)c1ccc2cc(OC(=O)c3ccc(N=C(N)N)cc3)ccc2c1 [Nafamostat, nafamostat]
[1]
  Cytotoxicity seen in immunocytochemistry: did not exert significant toxicity; also recorded: not significantly cytotoxic
  Block of SARS-CoV-2^WK-521 infection (immunocytochemistry): inactive against the virus
[1]; listed as nafamostat
  Block of SARS-CoV-2^WK-521 infection (immunocytochemistry): did not exert significant antiviral activity; also recorded: failed to block SARS-CoV-2 infection
[2]
  CC50 at 3 days: > 100 µM
[5]
  Cytotoxicity (in words): nontoxic at all concentrations tested
[7]
  EC50: 0.005 µM

## CCC(CC)COC(=O)[C@H](C)N[P@](=O)(OC[C@H]1O[C@@](C#N)(c2ccc3c(N)ncnn23)[C@H](O)[C@@H]1O)Oc1ccccc1 [Remdesivir, remdesivir]
[6]
  Protection of virus-exposed cells (light microscopy): appeared to be protected
[1]; 10 μM
  Observation by immunocytochemistry: further suppression of viral replication
[1]; 100 μM
  Observation by immunocytochemistry: nearly complete
[1]
  Block of SARS-CoV-2^WK-521 infection (immunocytochemistry): significantly blocked SARS-CoV-2 infection but allowed viral breakthrough
[4]
  Observation by immunocytochemistry: essentially no infected cells seen
  Block of infectivity and cytopathic effect of SARS-CoV-2^WK-521 (immunocytochemistry): potently blocked; also recorded: permitted viral breakthrough
[2]
  CC50 at 3 days: > 100 µM
[3]; [10]
  EC50: 1.2 ± 0.06 µM
[3]
  Selectivity index: >83

## Cc1cccc(C)c1OCC(=O)N[C@@H](Cc1ccccc1)[C@@H](O)C[C@H](Cc1ccccc1)NC(=O)[C@H](C(C)C)N1CCCNC1=O [Lopinavir, lopinavir]
[1]
  Block of SARS-CoV-2^WK-521 infection (immunocytochemistry): failed to block SARS-CoV-2 infection
[4]
  Observation by immunocytochemistry: most of the cells were lost
  Antiviral effect seen by immunocytochemistry: no detectable antiviral activity
  Block of infectivity and cytopathic effect of SARS-CoV-2^WK-521 (immunocytochemistry): failed to block the infection
[2]
  CC50 at 3 days: 51 ± 5 µM
[3]; [10]
  EC50: 19 ± 8 µM
[3]
  Selectivity index: 2.7

## CC(C)CN(C[C@@H](O)[C@H](Cc1cc(F)cc(F)c1)NC(=O)O[C@H]1C2COC3OCC1C3C2)S(=O)(=O)c1ccc2nc(NC3CC3)sc2c1 (stereo partly drawn) [GRL-142]
[8]
  Tm of HIV-1 protease: 87.13 °C

## Cc1c(O)cccc1C(=O)N[C@@H](CSc1ccccc1)[C@H](O)CN1C[C@H]2CCCC[C@H]2C[C@H]1C(=O)NC(C)(C)C [Nelfinavir, nelfinavir]
[1]
  Block of SARS-CoV-2^WK-521 infection (immunocytochemistry): failed to block SARS-CoV-2 infection
[4]
  Observation by immunocytochemistry: most of the cells were lost
  Antiviral effect seen by immunocytochemistry: no detectable antiviral activity
  Block of infectivity and cytopathic effect of SARS-CoV-2^WK-521 (immunocytochemistry): failed to block the infection
[2]
  CC50 at 3 days: 53 ± 8 µM
[3]; [10]
  EC50: 3.1 µM
[3]
  Selectivity index: 17

## C=CCn1ccc2c(C(=O)Oc3cncc(Cl)c3)cccc21 [GRL-0820]
[1]
  Block of SARS-CoV-2^WK-521 infection (immunocytochemistry): permitted viral breakthrough
[4]
  Observation by immunocytochemistry: viral breakthrough had occurred
  Block of infectivity and cytopathic effect of SARS-CoV-2^WK-521 (immunocytochemistry): potently blocked; also recorded: permitted viral breakthrough
[2]
  CC50 at 3 days: > 100 µM
[9]
  Increase of the mass of M^pro: 183.85 amu
[9]; TOF MS
  Average mass of the major M^pro species with compound: 34,037.21
[3]; Severe acute respiratory syndrome coronavirus 2, Vero C1008, read-out: Anti-SARS-CoV-2 EC50
  EC50: 15 ± 18 µM
[3]; [10]
  EC50: 23 ± 5 µM
[3]
  Selectivity index: >4.3
